Here are results for 14 molecules from ChEMBL document CHEMBL1158545, “3'-(1,2,3-Triazol-1-yl)-3'-deoxythymidine analogs as substrates for human and Ureaplasma parvum thymidine kinase for structure-activity investigations” (Bioorg Med Chem, 2010).

Data set [1] deals with T1, Thymidine kinase, cytosolic (Homo sapiens, UniProt P04183).
T1 sequence (P04183 whole entry): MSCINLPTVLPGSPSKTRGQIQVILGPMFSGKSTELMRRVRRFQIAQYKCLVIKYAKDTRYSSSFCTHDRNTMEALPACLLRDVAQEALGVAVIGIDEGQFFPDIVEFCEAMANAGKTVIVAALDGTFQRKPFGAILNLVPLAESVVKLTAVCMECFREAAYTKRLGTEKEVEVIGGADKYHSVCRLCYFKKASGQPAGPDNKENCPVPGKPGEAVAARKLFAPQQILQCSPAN
In words: Inhibition of human TK1 by liquid scintillation counting.

The target of data set [2] is T2, Thymidine kinase (Ureaplasma parvum serovar 3 (strain ATCC 700970)) (UniProt Q9PPP5).
T2 sequence (whole entry): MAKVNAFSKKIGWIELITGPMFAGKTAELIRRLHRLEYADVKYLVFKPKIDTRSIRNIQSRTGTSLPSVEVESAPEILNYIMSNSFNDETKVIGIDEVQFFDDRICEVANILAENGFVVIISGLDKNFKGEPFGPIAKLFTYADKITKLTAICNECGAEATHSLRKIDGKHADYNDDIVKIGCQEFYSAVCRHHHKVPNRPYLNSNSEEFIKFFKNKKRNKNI
As to the kind of experiment: Activity of Ureaplasma parvum thymidine kinase relative to dThd.

In data set [3] the target is T3, Thymidine kinase, cytosolic (Homo sapiens) (UniProt P04183).
T3 sequence (whole entry): T1 sequence (P04183 whole entry)
In words: Activity of human TK1 relative to ATP. The arrangement: concentration or dose not given beside the values.

Data set [4] addresses T2, Thymidine kinase (Ureaplasma parvum serovar 3 (strain ATCC 700970)). In words: Ratio of Vmax to Km for Ureaplasma parvum thymidine kinase relative to dThd.
Data set [5] has as its target T3, Thymidine kinase, cytosolic (Homo sapiens). In words: Ratio of Vmax to Km for human TK1 relative to […].
Data set [6] concerns the target T4, Thymidine kinase (Ureaplasma parvum serovar 3 (strain ATCC 700970), UniProt Q9PPP5).
T4 sequence (Q9PPP5 whole entry): T2 sequence (whole entry)
As to the kind of experiment: Inhibition of Ureaplasma parvum thymidine kinase by liquid scintillation counting.

Substrate in data set [7]: CC(=O)OCc1cn([C@H]2C[C@H](n3cc(C)c(=O)[nH]c3=O)O[C@@H]2CO)nn1
The settings on record: Ureaplasma parvum.

Substrate in data set [8]: CCCCCc1cn([C@H]2C[C@H](n3cc(C)c(=O)[nH]c3=O)O[C@@H]2CO)nn1
The settings on record: Ureaplasma parvum.

Substrate in data set [9]: CCCc1cn([C@H]2C[C@H](n3cc(C)c(=O)[nH]c3=O)O[C@@H]2CO)nn1
The settings on record: Ureaplasma parvum.

Substrate in data set [10]: Cc1cn([C@H]2C[C@H](N=[N+]=[N-])[C@@H](CO)O2)c(=O)[nH]c1=O
The settings on record: Ureaplasma parvum.

Substrate in data set [11]: Cc1cn([C@H]2C[C@H](n3cc(-c4ccccc4)nn3)[C@@H](CO)O2)c(=O)[nH]c1=O
The settings on record: Ureaplasma parvum.

Substrate in data set [12]: Cc1cn([C@H]2C[C@H](n3cc(-c4ccccn4)nn3)[C@@H](CO)O2)c(=O)[nH]c1=O
The settings on record: Ureaplasma parvum.

Substrate in data set [13]: Cc1cn([C@H]2C[C@H](n3cc(C(C)(C)C)nn3)[C@@H](CO)O2)c(=O)[nH]c1=O
The settings on record: Ureaplasma parvum.

Substrate in data set [14]: Cc1cn([C@H]2C[C@H](n3cc(CCc4ccccc4)nn3)[C@@H](CO)O2)c(=O)[nH]c1=O
The settings on record: Ureaplasma parvum.

Substrate in data set [15]: Cc1cn([C@H]2C[C@H](n3cc(Cc4ccccc4)nn3)[C@@H](CO)O2)c(=O)[nH]c1=O
The settings on record: Ureaplasma parvum.

Substrate in data set [16]: CC(=O)OCc1cn([C@H]2C[C@H](n3cc(C)c(=O)[nH]c3=O)O[C@@H]2CO)nn1
The settings on record: Homo sapiens.

Substrate in data set [17]: CCCCCc1cn([C@H]2C[C@H](n3cc(C)c(=O)[nH]c3=O)O[C@@H]2CO)nn1
The settings on record: Homo sapiens.

Substrate in data set [18]: CCCc1cn([C@H]2C[C@H](n3cc(C)c(=O)[nH]c3=O)O[C@@H]2CO)nn1
The settings on record: Homo sapiens.

Substrate in data set [19]: Cc1cn([C@H]2C[C@H](N=[N+]=[N-])[C@@H](CO)O2)c(=O)[nH]c1=O
The settings on record: Homo sapiens.

Substrate in data set [20]: Cc1cn([C@H]2C[C@H](n3cc(-c4ccccc4)nn3)[C@@H](CO)O2)c(=O)[nH]c1=O
The settings on record: Homo sapiens.

Substrate in data set [21]: Cc1cn([C@H]2C[C@H](n3cc(-c4ccccn4)nn3)[C@@H](CO)O2)c(=O)[nH]c1=O
The settings on record: Homo sapiens.

Substrate in data set [22]: Cc1cn([C@H]2C[C@H](n3cc(C(C)(C)C)nn3)[C@@H](CO)O2)c(=O)[nH]c1=O
The settings on record: Homo sapiens.

Substrate in data set [23]: Cc1cn([C@H]2C[C@H](n3cc(CCc4ccccc4)nn3)[C@@H](CO)O2)c(=O)[nH]c1=O
The settings on record: Homo sapiens.

Substrate in data set [24]: Cc1cn([C@H]2C[C@H](n3cc(Cc4ccccc4)nn3)[C@@H](CO)O2)c(=O)[nH]c1=O
The settings on record: Homo sapiens.

The molecule `Cc1cn([C@H]2C[C@H](n3cc(-c4ccccc4)nn3)[C@@H](CO)O2)c(=O)[nH]c1=O` displayed a concentration for half-maximal inhibition (IC50) in [1] of 99 µM. For the same molecule, the Activity is 5.5% in data set [2], 2.1% in data set [3], 0.7% in data set [4] and 0.2% in data set [5].

`CCCc1cn([C@H]2C[C@H](n3cc(C)c(=O)[nH]c3=O)O[C@@H]2CO)nn1`: the Activity in [2] was determined as 6.5%; in data set [3] it was 2.7%; in data set [4] it was 0.5%; in [5], 0.1%.

Molecule `Cc1cn([C@H]2C[C@H](n3cc(-c4ccccn4)nn3)[C@@H](CO)O2)c(=O)[nH]c1=O` gave an IC50 in [1] of 53 µM. Further, the Activity in data set [2] worked out at 7.1%; in data set [3], 3.1%; in data set [4], 1.1%; in data set [5], 0.5%.

As for `Cc1cn([C@H]2C[C@H](n3cc(C(C)(C)C)nn3)[C@@H](CO)O2)c(=O)[nH]c1=O`, the Activity worked out at 4.7% in data set [2], 2.2% in data set [3], 0.15% in data set [4] and 0.07% in data set [5].

As to `COCc1cn([C@H]2C[C@H](n3cc(C)c(=O)[nH]c3=O)O[C@@H]2CO)nn1`, the Activity turned out to be 1.6% in data set [2] and 1.3% in data set [3].

As for `Cc1cn([C@H]2C[C@H](n3cc(CCO)nn3)[C@@H](CO)O2)c(=O)[nH]c1=O`, the Activity worked out at 4.1% in data set [2] and 2.2% in [3].

For `Cc1cn([C@H]2C[C@H](n3cc(-c4ccc(F)cc4)nn3)[C@@H](CO)O2)c(=O)[nH]c1=O`, the results for the IC50 in data set [1] and in data set [6] were 44 µM and 71 µM, respectively. The Activity in [2] was determined as 13.7%; in data set [3], 2.6%; in data set [5], 1.1%.

With `CC(=O)OCc1cn([C@H]2C[C@H](n3cc(C)c(=O)[nH]c3=O)O[C@@H]2CO)nn1`, the Activity in data set [2] worked out at 3.9%; in data set [3], 2.4%; in [4], 0.6%; in [5], 0.1%.

In the case of `Cc1cn([C@H]2C[C@H](n3cc(CCc4ccccc4)nn3)[C@@H](CO)O2)c(=O)[nH]c1=O`, in data set [1], it took 60 µM to reach half-maximal inhibition (IC50). The Activity came out at 12.3% in data set [2], 2.4% in data set [3], 0.8% in data set [4] and 0.08% in data set [5].

Take `Cc1cn([C@H]2C[C@H](N=[N+]=[N-])[C@@H](CO)O2)c(=O)[nH]c1=O`: the Activity in [2] worked out at 27.8%; in data set [3] it was 47.3%; in [4], 43%; in data set [5], 50%.

Regarding `Cc1cn([C@H]2C[C@H](n3cc(Cc4ccccc4)nn3)[C@@H](CO)O2)c(=O)[nH]c1=O`, the values for the IC50 in data set [1] and in [6] were 78 µM and 73 µM, respectively. In addition, the Activity in [2] is 11.6%; in data set [3], 4.8%; in data set [4], 0.8%; in data set [5], 0.1%.

With `CCCCCc1cn([C@H]2C[C@H](n3cc(C)c(=O)[nH]c3=O)O[C@@H]2CO)nn1`, the Activity in data set [2] was found to be 7.2%; in data set [3], 1.9%; in data set [4], 1.6%; in data set [5] it was 0.3%.

B1: Thymidine kinase (Ureaplasma parvum serovar 3 (strain ATCC 700970)), Q9PPP5 (protein)
chain: T2 sequence (whole entry)
Regarding B1, the Km stood at 78 µM in data set [7]; 32 µM in data set [8]; 122 µM in data set [9]; 2.7 µM in data set [10]; 40 µM in [11]; 30 µM in data set [12]. In addition, the results for the Km in [13], in data set [14] and in data set [15] were 259 µM, 104 µM and 85 µM, respectively.

B2: Thymidine kinase, cytosolic (Homo sapiens), P04183 (protein)
chain: T1 sequence (P04183 whole entry)
In the case of B2, the Km was determined as 114 µM in data set [16]; 75 µM in [17]; 138 µM in [18]; 3.5 µM in data set [19]; 57 µM in data set [20]; 33 µM in data set [21]. The values for the Km in data set [22], in data set [23] and in data set [24] were 243 µM, 204 µM and 174 µM, respectively.
